Assay [1] deals with T1, signal transducer and activator of transcription 3 (STAT3) (Homo sapiens, UniProt P40763).
T1 construct: His-STAT3 127-722
The assay can be described thus: microscale thermophoresis with labeled purified His-STAT3 […]-722 (reference inhibitor). The format is binding.

Assay [2] deals with T1, signal transducer and activator of transcription 3 (STAT3). Kind of assay: microscale thermophoresis with labeled purified His-STAT3 […]-722. In kind it is binding. For orientation: In MST a laser heats a spot of the sample, and binding alters the fluorescence response.

T1 sequence (P40763 127-722): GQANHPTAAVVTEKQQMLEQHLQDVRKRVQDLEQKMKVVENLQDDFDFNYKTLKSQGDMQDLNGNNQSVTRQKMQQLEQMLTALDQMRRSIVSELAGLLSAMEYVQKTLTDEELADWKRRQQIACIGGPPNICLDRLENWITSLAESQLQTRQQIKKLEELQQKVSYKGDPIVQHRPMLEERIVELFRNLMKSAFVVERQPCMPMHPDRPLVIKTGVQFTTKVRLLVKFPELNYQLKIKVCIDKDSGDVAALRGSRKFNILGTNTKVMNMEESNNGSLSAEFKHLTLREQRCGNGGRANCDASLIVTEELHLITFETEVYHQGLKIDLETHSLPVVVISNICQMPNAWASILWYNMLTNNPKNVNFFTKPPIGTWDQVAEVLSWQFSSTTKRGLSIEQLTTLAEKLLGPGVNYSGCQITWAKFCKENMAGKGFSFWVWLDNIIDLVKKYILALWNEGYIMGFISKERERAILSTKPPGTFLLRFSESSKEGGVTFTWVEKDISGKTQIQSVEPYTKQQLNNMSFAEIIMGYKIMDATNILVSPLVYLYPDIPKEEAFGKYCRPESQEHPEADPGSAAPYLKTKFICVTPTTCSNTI

For `O=[N+]([O-])c1ccc2c(c1)S(=O)(=O)C=C2` [Stattic], binding in assay [1] was characterised by a dissociation constant (Kd) of 6.51 ± 0.82 µM.

For the molecule WB737, the affinity in assay [2], expressed as Kd, was 0.00134 ± 0.00019 µM.

These data come from article PMC10274570, “Preclinical characterization of WB737, a potent and selective STAT3 inhibitor, in natural killer/T‐cell lymphoma” (MedComm, 2023).
